According to patent publication EP0987023A1, “Transition metal complexes of non steroidal anti-inflammatory drugs” (PANACEA BIOTEC LIMITED, priority 1998, dated 2000):
Like-named read-outs stand apart in the source and are kept apart here.

How the values were obtained:
[1] = collected values of NSAIDs; cited from earlier work
[2] = system: Cyclooxygenase 2/Cyclooxygenase 1; conditions: cited from earlier work
[3] = collected values of NSAIDs; cited from earlier work; remark: listed apart in the source
[4] = system: Carageenan - induced rat paw edema; assay: Carageenan-induced rat paw edema (anti-inflammatory activity); type: in vivo; conditions: in words, compared to parent drug
[5] = in words; pre-treatment; Navarro et al. 1994; cited from earlier work
[6] = IC50 (µg/ml) of COX2 divided by IC50 for COX1, values below 1 indicate selectivity for COX2, from Drugs of Today Vol. 32 Suppl. D 1996 p. 5

Structure (SMILES): CC(=O)Oc1ccccc1C(=O)O [Acetylsalicylic acid]
- ED50 [1]: 135.0 mg/kg
- Cyclooxygenase 2/Cyclooxygenase 1 ratio [2, 6]: 166
- LD50 [3]: 1520 mg/kg
- Therapeutic Index [3]: 14

Structure (SMILES): CC(C(=O)O)c1ccc2c(c1)[nH]c1ccc(Cl)cc12 (stereo not drawn) [Carprofen]
- Cyclooxygenase 2/Cyclooxygenase 1 ratio [2]: 1

Structure (SMILES): O=C([O-])Cc1ccccc1Nc1c(Cl)cccc1Cl.O=C([O-])Cc1ccccc1Nc1c(Cl)cccc1Cl.[Zn+2] [Diclofenac-Zinc]
- anti-inflammatory activity ([4]; listed as Diclofenac-Zinc complex): much more than the parent drug
- anti-inflammatory activity ([4]; listed as Zinc-diclofenac complex): more potent anti-inflammatory activity than diclofenac

Structure (SMILES): O=C(c1ccccc1)c1cccc(NS(=O)(=O)C(F)F)c1 [Diflumidone]
- ED50 [1]: 38.0 mg/kg
- LD50 [3]: 750 mg/kg
- Therapeutic Index [3]: 20

Structure (SMILES): O=C(O)c1ccccc1Nc1cccc(C(F)(F)F)c1 [Flufenamic acid]
- ED50 [1]: 14.7 mg/kg
- LD50 [3]: 249 mg/kg
- Therapeutic Index [3]: 17

Structure (SMILES): CC(C(=O)O)c1ccc(-c2ccccc2)c(F)c1 (stereo not drawn) [Flurbiprofen]
- Cyclooxygenase 2/Cyclooxygenase 1 ratio [2]: 1.3

Structure (SMILES): CC(C)Cc1ccc(C(C)C(=O)O)cc1 (stereo not drawn) [Ibuprofen]
- ED50 [1]: 13.5 mg/kg
- LD50 [3]: 923 mg/kg

Structure (SMILES): COc1ccc2c(c1)c(CC(=O)O)c(C)n2C(=O)c1ccc(Cl)cc1 [Indomethacin]
- ED50 [1]: 2.95 mg/kg
- LD50 [3]: 210 mg/kg

Structure (SMILES): COc1ccc2cc([C@H](C)C(=O)O)ccc2c1 [Naproxen, (+) -2-(6-Methoxy-2-haphthyl) propionic acid]
- ED50 [1]: 2.10 mg/kg

Structure (SMILES): CS(=O)(=O)Nc1ccc([N+](=O)[O-])cc1Oc1ccccc1 [Nimesulide]
- ED50 [1]: 1.25 mg/kg

Structure (SMILES): CC(=O)Nc1ccc(O)cc1 [Paracetamol]
- Cyclooxygenase 2/Cyclooxygenase 1 ratio [2, 6]: 7.4

Structure (SMILES): CN1C(C(=O)Nc2ccccn2)=C(O)c2ccccc2S1(=O)=O [Piroxicam]
- Cyclooxygenase 2/Cyclooxygenase 1 ratio [2]: 250

Structure (SMILES): O=C([O-])c1ccccc1O.[Na+] [Sodium salicylate]
- Cyclooxygenase 2/Cyclooxygenase 1 ratio [2, 6]: 2.8

Structure (SMILES): CC1=C(CC(=O)O)c2cc(F)ccc2/C1=C\c1ccc([S+](C)[O-])cc1 (stereo not drawn) [Sulindac]
- Cyclooxygenase 2/Cyclooxygenase 1 ratio [2, 6]: 100

Structure (SMILES): Cc1c(Cl)cccc1Nc1ccccc1C(=O)O [Tolfenamic acid]
- Cyclooxygenase 2/Cyclooxygenase 1 ratio [2, 6]: 16.7

Structure (SMILES): Cc1ccc(C(=O)c2ccc(CC(=O)O)n2C)cc1 [Tolmetin]
- Cyclooxygenase 2/Cyclooxygenase 1 ratio [2, 6]: 175

Structure (SMILES): CC(=O)NCCCCCC(=O)[O-].CC(=O)NCCCCCC(=O)[O-].[Zn+2] [Zinc acexamate]
- overall Severity of lessions induced by NSAIDS [5]: significantly decreased
